The values below are quoted from earlier work in paper PMC7770979 (Molecular Metabolism, 2020).

In this data set the test system is IR.

Regarding “SerA12 substitution by alanine: insulin with SerA12 substitution by alanine (ref 34)”, the “Affinity to IR, % of insulin” value is given as 36%.
